Entries after “also recorded” stand apart in the source; their conditions may differ.
Legend:
Assay type in all cases: cell-based
[1] = system: NGP human neuroblastoma cells; assay: Loewe additivity (CHALICE) synergy screen, CellTiter-Glo viability, 7x7 dose matrix; parameters: key to Synergy score (Mean): Loewe excess-inhibition synergy score; >0 synergistic, >2 strong; key to Max Combo Effect: growth inhibition scale; 100 = stasis; conditions: NGP (WT)
Description: The synergistic interaction of drug combinations were assessed based on the Loewe Additivity Model using Chalice software [CombinatoRx, Cambridge Mass.]). […] The software compares the response (% inhibition or % reduction of cell viability) of drug treatment from a combination of two agents to the response of the agents acting alone, against the drug-with-itself dose-additive reference model (the Loewe Additivity Model). Deviations from dose additives can be assessed numerically with a “synergy score” which quantifies the overall strength of combination effect. A synergy score >0 indicates a synergistic combination. In order to ensure only strongly synergistic combinations were selected, the acceptance criteria were set at a higher level. Strongly synergistic combinations were defined as having both a synergy score >2, a synergy score that is twice as large as the background (non-synergy) model would predict, and a maximum efficacy of >100, a value equivalent to stasis, as determined from the growth inhibition calculation.
(§1) After treatment, cell viabilty (quantity of viable cells) for each test mixtures were determined by the CellTiter-Glo® (CTG) luminescent cell viability assay (Promega) described in the Assay section, infra. […] The response to treatment (% reduction of cell viability) was analyzed using Chalice software [CombinatoRx, Cambridge Mass.]). Data evaluation and graph generation were performed using Microsoft Excel software and Chalice software.
(§2) Cell viability were determined by measuring cellular ATP content using the CellTiter-Glo® (CTG) luminescent cell viability assay (Promega). […] Reduced and enhanced luminescent signal values (responses) were calculated relative to untreated (control) cells, and the calculated signal value proportional to the cell viability.
Synergistic combinations were identified based on the Loewe Addivity Model. To measure the effects of drug combinations on the cell viability, cells from the 20 cell lines listed in Table 1 above were seeded into 1536-well assay plates at a density 300 cells per well in a 7 μL final volume and incubated at 37° C. overnight in a GNF Systems incubator with 95% RH and 5% CO2.
Approximately 18 hours after plating, compound combinations were generated on the fly by transferring 7.5 nL of compound from the pre-diluted source plates using the Labcyte ECHO555 integrated onto the ACP-1 system with replicate plates per cell line; the final DMSO concentration per well was 0.2%. It is noted that the total volume in the wells was 7 μL.
The well at the intersection of the first column and first row which received no compound was dosed with 2×7.5 nL of DMSO and served as control.
Following compound addition, the plates were returned to the incubator for 120 hours. The effects of the combinations on cellular viability were assessed with the addition of Cell Titer Glo (Promega G7573) using one of the GNF Bottle Valve dispensers on the ACP-1 system; plates were then incubated at room temperature for ten minutes and read on the integrated Perkin Elmer Viewlux (2 second exposure, 2×bin, high sensitivity). The raw data was normalized using the DMSO-treated cell control well within each plate.
All synergy calculations were performed using CHALICE software from Zalicus. […] Potential synergistic interactions between compound combinations were assessed using the Excess Inhibition 2D matrix according to the Loewe Additivity Model and are reported as synergy score.
Compounds were combined with themselves to determine the effect of assay noise on the synergy assessment parameters of the expected dose-additive interaction. Synergistic combination hits (strongly synergistic) were identified as having both a synergy score >2, a synergy score that is twice as large as the background model (non-synergy) would predict, and a maximum efficacy of >100, a value equivalent to stasis, as determined from the growth inhibition calculation.

[2] = system: panel of human neuroblastoma cell lines (ALK mutant and wild type); assay: Loewe additivity (CHALICE) synergy screen, results over the whole panel; conditions: for Single-agent efficacy over the panel (self-cross scatter plots): Example A, FIGS. 4A, 4B, 15 cell lines; for Mean of synergy scores over the cell lines / Median of synergy scores over the cell lines: 15 cell lines of Table 2; for Efficacy and synergy over the panel (scatter plots): Example G, FIG. 21, 16 cell lines
Description: (§3) The synergistic interaction of drug combinations were assessed based on the Loewe Additivity Model using Chalice software [CombinatoRx, Cambridge Mass.]). […] 27:659-66. The software compares the response (% inhibition or % reduction of cell viability) of drug treatment from a combination of two agents to the response of the agents acting alone, against the drug-with-itself dose-additive reference model (the Loewe Additivity Model). Deviations from dose additives can be assessed numerically with a “synergy score” which quantifies the overall strength of combination effect. A synergy score >0 indicates a synergistic combination. In order to ensure only strongly synergistic combinations were selected, the acceptance criteria were set at a higher level. Strongly synergistic combinations were defined as having both a synergy score >2, a synergy score that is twice as large as the background (non-synergy) model would predict, and a maximum efficacy of >100, a value equivalent to stasis, as determined from the growth inhibition calculation.
as §1
The statistical variation of the synergy scores tabulated in Tables 2 and 3 were graphically illustrated by a Box Plot (FIG. 3). […] The ALK×ALK and CDK4/6×CDK4/6 combination is moderately sygergistic with synergy score at 1.011 (sd=0.4) and 1.16 (sd=0.43), respectively. In ALK normal cells, the combinations and the self-cross treatments were not sygeristic with synergistic score of about 0.5, but similarly large standard deviations.
For visual identification for strongly synergistic compositions, the data in Tables 2 and 3 were presented in scatter plots (FIGS. 4 A-C) where maximum combination efficacy were plotted against the synergy scores. Only data from two of the three ALK inhibitors, compounds A1 and A2 were included. In a scatter plot, a vertical shift implies additive effect; a right shift implies synergistic interactions and a diagonal shift implies synergy with a boost in efficacy. Synergistic combination hits are those in the upper right quadrant where the synergy score is >2 and the maximum efficacy is >100.
(§4) The combinations were tested in duplicate using a 7×7 dose matrix block in 1536 well format with a cell proliferation readout as described in the Assay section infra.
(§5) All synergy calculations were performed using CHALICE software package from Zalicus and potential synergistic interactions between compound combinations were assessed using the Excess Inhibition 2D matrix according to the Loewe additivity model and were reported as synergy score (Table 10) (Lehar et al). Strongly synergistic combination were identified as having both (1) a synergy score greater than 2, a synergy score that is twice as large as the background (non-synergy) model would predict, and (2) a maximum efficacy of >100, a value roughly equivalent to stasis, as determined from the growth inhibition calculation.
as §2
(§6) Synergistic combinations were identified based on the Loewe Addivity Model.

[3] = system: LAN-1 human neuroblastoma cells; assay: Loewe additivity (CHALICE) synergy screen, CellTiter-Glo viability, 7x7 dose matrix; parameters: key to Synergy score (Mean): Loewe excess inhibition synergy score; >0 synergistic; key to Max Combo Effect: growth inhibition scale; 100 = stasis; conditions: LAN-1 (F1174L)
Description: as §3, §1
The % inhibition (reduction in cell viability) by the drug treatments were recorded in the block In the dose matrix (left); the single agent treatment at the far left column and the bottom row, and the combinations in the remaining 6x6 combination blocks. The differences between the data in the dose matrix and the expected inhibition value generated by the Loewe model were reported in the Loewe Excess matrix. In this Excess Inhibition matrix, synergy is defined as values>0; that is inhibition greater than what would be expected from a simple additive interaction. Antagonism is defined as values<0; that is inhibition […] than what would be expected from a simple additive interaction. The synergy score for the drug treatments were computed taken into account of the entire 6×6 combination blocks within the matrix.
as §4, §5, §2, §6

| SMILES | Max Combo Effect ([1]; Table 3) | Synergy score (Mean) ([1]; Table 3) | Single-agent efficacy over the panel (self-cross scatter plots) [2] | Max Combo Effect ([3]; Table 3) | Synergy score (Mean) ([3]; Table 3) | Max Combo Effect ([1]; Table 2) | Synergy score (Mean) ([1]; Table 2) | Max Combo Effect ([3]; Table 2) | Synergy score (Mean) ([3]; Table 2, listed as Cmpd A1 Self Cross) | Synergy score (Mean) ([3]; Table 2, listed as Cpd A1×A1) | Mean of synergy scores over the cell lines [2] | Median of synergy scores over the cell lines [2] | Efficacy and synergy over the panel (scatter plots) [2] |
| --- | --- | --- | --- | --- | --- | --- | --- | --- | --- | --- | --- | --- | --- |
| Cc1cc(Nc2nc(Nc3ccccc3S(=O)(=O)C(C)C)c3cn[nH]c3n2)c(OC(C)C)cc1C1CCN(C)CC1 [Compound A2, N6-(2-isopropoxy-5-methyl-4-(1-methylpiperidin-4-yl)phenyl)-N4-(2-(isopropylsulfonyl)phenyl)-1H-pyrazolo[3,4-d]pyrimidine-4,6-diamine] | 184.04 | 0.84 | preferential single-agent efficacy for the ALK disease cell lines over the ALK normal cell lines |  |  |  |  |  |  |  |  |  |  |
| C[C@@H](Oc1cc(-c2cnn(C3CCNCC3)c2)cnc1N)c1c(Cl)ccc(F)c1Cl [Compound A3, (R)-3-(1-(2,6-dichloro-3-fluorophenyl)ethoxy)-5-(1-(piperidin-4-yl)-1H-pyrazol-4-yl)pyridin-2-amine, reference compound] | 11.39 | 0.01 |  | 77.73 | 0.63 |  |  |  |  |  |  |  |  |
| Cc1cc(Nc2ncc(Cl)c(Nc3ccccc3S(=O)(=O)C(C)C)n2)c(OC(C)C)cc1C1CCNCC1 [Compound A1, 5-chloro-N2-(2-isopropoxy-5-methyl-4-(piperidin-4-yl)phenyl)-N4-[2-(propane-2-sulfonyl)-phenyl]-pyrimidine-2,4-diamine] |  |  | preferential single-agent efficacy for the ALK disease cell lines over the ALK normal cell lines |  |  | 104.1 | 0.822 | 114.2 | 1.011 | 1.01 | 0.841 | 0.884 | preferential single agent efficacy for the ALK Disease subset of cell lines over the ALK WT cell lines |
| CN(C)C(=O)c1cc2cnc(Nc3ccc(N4CCNCC4)cn3)nc2n1C1CCCC1 [Compound B, 7-cyclopentyl-N,N-dimethyl-2-((5-(piperazin-1-yl)pyridin-2-yl)amino)-7H-pyrrolo[2,3-d]pyrimidine-6-carboxamide] | 17.0 | 0.01 | single-agent efficacy (>100) in two disease cell lines and one normal cell line; also recorded: minimal single agent efficacy or synergy | 62.78 | 0.25 | 31.2 | 0.084 | 142.3 |  |  | 0.757 | 0.788 | no single agent efficacy in any of the cell lines tested |
